Assay results taken from patent US20250154170A1, “FUSED PYRIMIDINES AS KRAS INHIBITORS” (priority 2022, published 2025).

How the values were obtained:
K-Ras-wildtype = K-Ras-wildtype (Homo sapiens, UniProt P01116); assay: K-Ras-wildtype activation by SOS1 (wild-type KRAS activation by SOS1cat assay, HTRF); format: biochemical; conditions: mean, SOS1cat mediated loading of wild-type GST-KRAS-GDP with fluorescent GTP analogue, read-out: K-Ras-wildtype activation by SOS1 IC50 - [mol/l] (mean)
Experimental: (§1) Preparation of test compound dilutions. A 100-fold concentrated solution of the test compound (50 nL) in DMSO was transferred to microtiter test plates (384 or 1,536 wells, Greiner Bio-One, Germany) using either a Hummingbird liquid handler (Digilab, MA, USA) or an Echo acoustic system (Labcyte, CA, USA). Plates were sealed with adhesive foil or heat-sealed and stored at −20 C until use. Serial dilutions of test compounds were prepared in 100% DMSO using a Precision Pipetting System (BioTek, USA).
(§2) Measurement and evaluation of inhibition data, calculation of IC50 values. Homogeneous time-resolved fluorescence (HTRF) was measured with a PHERAstar reader (BMG, Germany) using the HTRF module (excitation: 337 nm; emission 1: 620 nm, emission 2: 665 nm). The ratio of the emissions at 665 and 620 nm was used as the specific signal for further evaluation. The data were normalized using the controls: DMSO=0% inhibition, inhibition control wells with inhibitor control solution=100% inhibition. Compounds were tested in duplicates at up to 11 concentrations (e.g. 20 μM, 5.7 μM, 1.6 μM, 0.47 μM, 0.13 μM, 38 nM, 11 nM, 3.1 nM, 0.89 nM, 0.25 nM and 0.073 nM). IC50 values were calculated using a four-parameter fit, with a commercial software package (Genedata Screener, Switzerland).
(§3) KRAS^G12C activation by SOS1^cat assay (“On-assay”). This assay quantifies SOS1^cat mediated loading of KRAS^G12C-GDP with a fluorescent GTP analogue. Detection of successful loading was achieved by measuring resonance energy transfer from anti-GST-terbium (FRET donor) bound to GST-KRAS^G12C to the loaded fluorescent GTP analogue (FRET acceptor). The fluorescent GTP analogue EDA-GTP-DY-647P1 [2′/3′-O-(2-aminoethyl-carbamoyl)guanosine-5′-triphosphate labelled with DY-647P1 (Dyomics GmbH, Germany)] was synthesized by Jena Bioscience (Germany) and supplied as a 1 mM aqueous solution. A KRAS^G12C working solution was prepared in assay buffer [10 mM HEPES pH 7.4 (AppliChem), 150 mM NaCl (Sigma), 5 mM MgCl2 (Sigma), 1 mM DTT (Thermo Fisher), 0.05% BSA Fraction V pH 7.0 (ICN Biomedicals), 0.0025% (v/v) Igepal (Sigma)] containing GST-KRAS^G12C (final concentration in assay 50 nM) and anti-GST-terbium (Cisbio, France) (final concentration in assay 1 nM). A SOS1^cat working solution was prepared in assay buffer containing SOS1^cat (final concentration 10 nM) and EDA-GTP-DY-647P1 (final concentration 100 nM). An inhibitor control solution was prepared in assay buffer containing EDA-GTP-DY-647P1 (final concentration 100 nM) without SOS1^cat. All steps of the assay were performed at 20° C. A volume of 3 μL of the KRAS^G12C working solution was added to all wells of the test plate using a Multidrop dispenser (Thermo LabSystems). After 15 min, 2 μL of the SOS1^ct working solution was added to all wells, except for the inhibitor control solution wells. After 30 min incubation, HTRF was measured.
(§4) G12D and Wild-type KRAS activation by SOS1cat assays. These assays quantify human SOS1^cat mediated loading of wild-type GST-KRAS^WT-GDP or GST-KRAS^G12D-GDP with a fluorescent GTP analogue. The assay was performed similarly to the KRAS^G12C activation by SOS1^cat assay with the following differences: final concentration of SOS1^cat of 60 nM and final incubation time before measurement of 10 min for KRAS^G12D assay, final concentration of SOS1^cat of 20 nM and final incubation time before measurement of 15 min for wild-type KRAS assay, respectively. GST-KRAS^G12C was replaced by GST-KRAS^WT or GST-KRAS^G12D, respectively, also at 50 nM final concentration.
Wild-type KRAS activation by SOS1^cat assay. This assay quantifies human SOS1^cat mediated loading of wild-type GST-KRAS-GDP with a fluorescent GTP analogue. The assay was performed similarly to the KRAS^G12D activation by SOS1^cat assay just by replacement of GST-KRAS^G12D by wild-type GST-KRAS while concentrations of all components and incubation times were the same.

K-Ras G12D = K-Ras G12D (Homo sapiens, UniProt P01116, G12D); assay: K-Ras G12D activation by SOS1 (KRAS G12D activation by SOS1cat assay, HTRF); format: biochemical; conditions: mean, SOS1cat mediated loading of GST-KRAS G12D-GDP with fluorescent GTP analogue, read-out: K-Ras G12D activation by SOS1 IC50 - [mol/l] (mean)
Experimental: as §1, §2, §3, §4
KRAS^G12D activation by SOS1^cat assay (“On-assay”). This assay quantifies SOS1^cat mediated loading of KRAS^G12D-GDP with a fluorescent GTP analogue. Detection of successful loading was achieved by measuring resonance energy transfer from anti-GST-terbium (FRET donor) bound to GST-KRAS^G12D to the loaded fluorescent GTP analogue (FRET acceptor).

Sequence of K-Ras-wildtype (P01116 1-188 isoform P01116-2): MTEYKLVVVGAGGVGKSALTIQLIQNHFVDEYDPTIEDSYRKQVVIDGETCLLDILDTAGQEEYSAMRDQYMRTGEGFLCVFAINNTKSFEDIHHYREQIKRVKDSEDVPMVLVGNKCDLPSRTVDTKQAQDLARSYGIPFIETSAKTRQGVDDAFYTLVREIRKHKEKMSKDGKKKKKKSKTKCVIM
Sequence of K-Ras G12D (P01116 1-188 isoform P01116-2 G12D): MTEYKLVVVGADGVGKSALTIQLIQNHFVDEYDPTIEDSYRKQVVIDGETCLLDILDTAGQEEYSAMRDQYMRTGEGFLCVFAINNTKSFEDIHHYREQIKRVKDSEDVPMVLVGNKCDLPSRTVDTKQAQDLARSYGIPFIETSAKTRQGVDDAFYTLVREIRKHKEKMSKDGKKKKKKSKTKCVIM

## C#Cc1cccc2cc(O)cc(N(C)c3nc4c(N5CC6CCC(C5)N6)nc(OC[C@@]56CCCN5C[C@H](F)C6)nc4s3)c12 [Example 31, 4-{[7-(3,8-diazabicyclo[3.2.1]octan-3-yl)-5-{[(2R,7aS)-2-fluorotetrahydro-1H-pyrrolizin-7a(5H)-yl]methoxy}[1,3]thiazolo[5,4-d]pyrimidin-2-yl](methyl)amino}-5-ethynylnaphthalen-2-ol]
K-Ras-wildtype
  IC50: 0.0615 µM
K-Ras G12D
  IC50: 0.00442 µM

## C#Cc1c(F)ccc2cc(O)cc(Cc3nc4c(N5CC6CCC(C5)N6)nc(OC[C@@]56CCCN5C[C@H](F)C6)nc4s3)c12 [Example 32, 4-{[7-(3,8-diazabicyclo[3.2.1]octan-3-yl)-5-{[(2R,7aS)-2-fluorotetrahydro-1H-pyrrolizin-7a(5H)-yl]methoxy}[1,3]thiazolo[5,4-d]pyrimidin-2-yl]methyl}-5-ethynyl-6-fluoronaphthalen-2-ol]
K-Ras-wildtype
  IC50: 0.0998 µM
K-Ras G12D
  IC50: 0.00395 µM
